Laboratory results: patent US20080081781A1, “Methods and compositions for the treatment of metabolic syndrome” (priority 2004, published 2008)
Like-named read-outs stand apart in the source and are kept apart here.

Experiments:
[1] = tested on: patients with type 2 diabetes; format: in vivo, human
Excerpt: Ninety-seven hyperglycemic patients (54 males and 43 females) with fasting blood glucose>7 mmol/L and post-prandial blood glucose>11.1 mmol/L were enrolled in a study at the Nanjing First Hospital in Nanjing, China. The patients were asked to end any current treatments for hyperglycemia at least 2 weeks prior to commencement of the study.
Fifty of the patients (male/female, 27/23; age 57±8y) were randomly assigned to be given 0.5 gram twice a day (1g/day total) of berberine (Nanjing Second Pharmaceutics, Inc., Nanjing, China), orally for 2 months. Out of these 50 patients, 25 had hyperlipidemia, 9 had hypertension and 2 had cardiovascular disease. Twenty-six patients (male/female, 15/11; age 56±11 y) were given 1.5 grams of metformin (Double-Crane Pharmaceutical, Inc., Beijing, China) per day, orally for two months. Of these twenty-six patients, 11 had hyperlipidemia, and four had hypertension. The remaining twenty-one patients (male/female, 11/10, age 49±10 y) were given 4 mg per day of rosiglitazone (Glaxowelcome, UK), orally for two months. Of these 21 patients, ten had hyperlipidemia and four had hypertension. Metformin and rosiglitazone served as reference controls as they are standard treatments for type 2 diabetes.
Blood samples were taken prior to the commencement of therapy and after completion of the therapy.

[2] = Toxicity analysis (LD50) in mice; conditions: mouse, in vivo
Method: Rats and mice were administered berberine through a variety of techniques, including orally, through subcutaneous injection, peritoneal injection and intravenous injection.

InsR gene promoter = test: InsR promoter activity, pGL3-1.5kIRP transfected HepG2 cells; format: cell-based, human; conditions: pGL3-1.5kIRP transfected HepG2, 10 μg/ml, 8 h
Method: The InsR promoter luciferase gene fusion plasmid (pGL3-1.5kIRP) was kindly provided by Dr. Araki E of the Graduate School of Medical Sciences, Kumamoto University, Honjo, Kumamoto, Japan.
After overnight incubation, the cells were treated with DMSO as the solvent control or with 0, 1, 2.5, 5, 7.5 and 10 μg/ml berberine for 8 h. Cell lysates were prepared and luciferase activities were measured using the Luciferase Reporter Gene Assay (Roche Applied Science). The experiment was repeated 4 times.

[3] = tested on: hyperlipidemia Chinese hamster; test: Lipid lowering effects of berberine in hyperlipidemia Chinese hamster; format: in vivo; conditions: for LDL reduced by: after the 10 day treatment; for LDL Protein / Triglycerides / Cholesterol: serum, ten days; for LDL Protein: saline control 2.8 ± 0.9; for Triglycerides: saline control 3.6 ± 0.4; for Cholesterol: saline control 6.4 ± 1.0
Method: Two weeks prior to treatment, female Chinese hamsters purchased from the National Institute of Vaccine and Serum research (Beijing, China) were switched to a high fat and cholesterol diet (10% lard, 10% egg yolk powder and 1% cholesterol). After two weeks, groups of 14 hamsters were given either 10 mg/kg/day of berberine through peritoneal injection, 20 mg/kg/day of berberine through peritoneal injection, 50 mg/kg/day, 100 mg/kg/day of berberine orally or saline for ten days. Serum cholesterol, triglyceride and LDL levels were measured after 4 h fasting before, during and after the course of the treatment. Four hours after the course of the treatment, the animals were sacrificed and their livers removed for analysis.

SREBP2 = test: Precursor and mature forms of SREBP2 in HepG2 cells (Western blot); format: cell-based, human; conditions: 8 hours
Excerpt: Total cell lysates from untreated cells or cells treated with either berberine or GW707 were then harvested and analyzed by Western blot.

in vitro = in vitro ADME; conditions: rabbit
Method: The rabbit blood protein binding rate was measured by in vitro dialysis at a rate of 38±3% (XD±S, n=6).

hyperglycemic rats = test: Hyperglycemic HFHC diet/streptozotocin Wistar rats: blood glucose, serum insulin, ISI, serum lipids; format: in vivo, Wistar rat; conditions: for reduction of fasting blood glucose vs untreated rats on same HFHC diet: 14 days
Method: Nineteen Wistar rats (Male, 250g, the Institute of Experiment Animal Sciences, Chinese Academy of Medical Sciences, Beijing) were fed high fat and high cholesterol (HFHC) diet containing 25% lard, 20% sucrose and 5% yolk powder (Institute of Experiment Animal Sciences) for 4 weeks to induce insulin resistance status. Then, after fasting for 24 hours, 20 mg/kg of streptozotocin (Sigma) dissolved in 0.01 M citric acid buffer (pH 4.3) was injected via the tail vein. A week later, rats with blood glucose concentrations over 11.1 mmol/L were considered hyperglycemic and divided into two groups of 7 and one group of 5 as the control.
The rats in the two groups of 7 were treated with berberine orally twice a day for 14 days, at 8:00 am and 5:00 pm, with a total dose of berberine at 75 mg/kg/day or 150 mg/kg/day, respectively. Blood samples were taken by tail snip after 4 hours fasting on indicating days of treatment, and blood glucose was measured. On the last day of the experiment, all of the rats fasted overnight and were then sacrificed.
The livers were dissected and stored in liquid nitrogen for RNA extraction, real-time RT-PCR and PKC activity assay. Total blood samples were also collected to assay fasting blood glucose and serum insulin levels. The insulin levels were analyzed using radio-immunoassay (Linco Research, St Charles, Mo.). The insulin sensitivity indexes (ISI) were calculated according to the formula: 10^4/(fasting serum insulin X fasting blood glucose) (Hanson, Am. J. Epidemiol. 15 1(2), 190-198 (2000)). The insulin level and ISI of normal rats were also determined for comparison. […] It also elevated the fasting blood glucose from 7 to 12.8 mmol/L (P<0.001).

[4] = patients with type 2 diabetes, After treatment (2 months), oral: berberine 1 g/day, metformin 1.5 g/day, rosiglitazone 4 mg/day, Mean ± SE
[5] = patients with type 2 diabetes, Before treatment (baseline), Mean ± SE
[6] = type 2 diabetes patients, 1 g/day orally, 2 months
[7] = 10 mg/kg/day peritoneal injection
[8] = 20 mg/kg/day peritoneal injection
[9] = 150 mg/kg/day, 14 day treatment

COc1ccc2cc3[n+](cc2c1OC)CCc1cc2c(cc1-3)OCO2 [berberine]
serum insulin levels ([1]; after treatment, normal range 2.5-13 mlU/L): decreased into the normal range | ALT after treatment ([1]; human, in vivo): 23±16 | BUN after treatment ([1]; human, in vivo): 5.7±1.2 | Cr after treatment ([1]; human, in vivo): 71±14 | r-GT after treatment ([1]; human, in vivo): 31±23 | HbA1c [1, 4]: 6.8 ± 0.2 % | Triglyceride [1, 4]: 1.4 ± 0.1 mmol/L | FBG (fasting blood glucose) [1, 5]: 10.4 ± 0.4 mmol/L | HbA1c [1, 5]: 8.0 ± 0.3% | Triglyceride [1, 5]: 1.7 ± 0.1 mmol/L | reduction of serum cholesterol ([1]; type 2 diabetes patients of berberine group (50% also had hyperlipidemia)): 24% | lowering of fasting blood glucose [1, 6]: 26% | lowering of hemoglobin A1c (HbA1c) [1, 6]: 18% | lowering of triglycerides [1, 6]: 18% | LD50 ([2]; intraperitoneal, peritoneal injection): 30 to 32.2 mg/kg | LD50 ([2]; intravenous injection): 7.6 to 10.2 mg/kg | LD50 ([2]; sc, subcutaneous injection): 13.9 to 20 mg/kg | elevation of Luc mRNA level (InsR gene promoter): 2.5 fold | LDL reduced by ([3]; 50 mg/kg/day): 26% | LDL reduced by ([3]; 100 mg/kg/day): 42% | LDL Protein [3, 7]: 1.6 ± 0.3 | Triglycerides [3, 7]: 2.6 ± 0.3 | Cholesterol [3, 7]: 4.1 ± 0.7 | LDL Protein [3, 8]: 0.9 ± 0.1 | Triglycerides [3, 8]: 1.7 ± 0.5 | Cholesterol [3, 8]: 3.2 ± 0.5 | LDL Protein ([3]; 50 mg/kg/day (orally)): 2.07 ± 0.9 | Cholesterol ([3]; 50 mg/kg/day (orally)): 3.5 ± 0.5 | LDL Protein ([3]; 100 mg/kg/day oral): 1.2 ± 0.2 | Triglycerides ([3]; 100 mg/kg/day oral): 1.9 ± 0.4 | Cholesterol ([3]; 100 mg/kg/day oral): 3.8 ± 0.7 | amount of the mature form of SREB-2 (SREBP2): no effect | fraction unbound (in vitro): 0.62 | reduction of fasting blood glucose vs untreated rats on same HFHC diet (hyperglycemic rats; 75 mg/kg/day orally): 22% | reduction of fasting blood glucose vs untreated rats on same HFHC diet (hyperglycemic rats; 150 mg/kg/day orally): 33% | reduction of LDL-c vs control animals on same HFHC diet (hyperglycemic rats; [9]): 33% | reduction of cholesterol vs control animals on same HFHC diet (hyperglycemic rats; [9]): 25% | reduction of triglyceride vs control animals on same HFHC diet (hyperglycemic rats; [9]): 24% | fasting serum insulin levels (hyperglycemic rats; insulin resistant HFHC rats): significantly reduced the serum insulin levels
